Measurements taken from US10376512B1, “Crystal of aniline pyrimidine compound of trifluoroethyl substituted indole and salt thereof” (CHIA TAI TIANQING PHARMACEUTICAL GROUP CO., LTD., priority 2018, dated 2019).

Assay: Stability test for crystals under accelerated conditions (light, high temperature, high humidity)
Type: physicochemical
Details: light 5000 Lx±500 Lx; high temperature 60° C.±2° C.; high humidity 75% RH±5% RH; samples taken on the 5th, 10th and 30th day
Experimental: The stability of the crystal according to the disclosure may be detected by placing the crystal in a high temperature, a high humidity, or a lighting condition. 40-60° C. may be selected for the high temperature, the relative humidity of 75%-92.5% RH may be selected for the high humidity condition, and 5000 Lux may be selected for the lighting condition. The crystal stability may be evaluated by investigating a plurality of data, such as content, total content of impurities, or water content, of the sample, and comprehensively evaluating the parameters according to the properties of the product.
The stability of the crystal according to the disclosure was investigated under accelerated test conditions according to the Guiding Principles for Stability Test of Crude Drugs and Pharmaceutical Preparations. The stabilities of the crystals obtained in Examples 1-8 were tested in a light environment at 5000 Lx±500 Lx, a high temperature environment at 60° C.±2° C., and a high humidity environment at 75% RH±5% RH, respectively. Samples were taken on the 5th day, the 10th day, and the 30th day, respectively, and the appearance properties, moisture contents, and total impurities of related substances of the samples were recorded for comparison with the initial data.

stability (appearance properties, moisture contents, total impurities of related substances compared with the initial data): better stability
SMILES: C=CC(=O)Nc1cc(Nc2nccc(-c3cn(CC(F)(F)F)c4ccccc34)n2)c(OC)cc1N(C)CCN(C)C [Example 3]
